Laboratory results published in US20020065227A1, “Charged compounds comprising a nucleic acid binding moiety and uses therefor” (priority 2000, published 2002).
Converted amounts (≈) assume the structure as drawn. Like-named read-outs stand apart in the source and are kept apart here.

Columns and labels:
[1] = test system: Staphylococcus aureus (33591) (methicillin resistant); test: MIC, NCCLS broth microdilution; format: cell-based
[2] = test system: Staphylococcus aureus (29213); test: MIC, NCCLS broth microdilution; format: cell-based
[3] = test system: Candida parapsilosis (10232); test: MIC, antifungal assay; format: cell-based
[4] = test system: Propionibacterium acnes (33179); test: MIC, NCCLS broth microdilution; format: cell-based; conditions: anaerobe
[5] = test system: Candida tropicalis (13803); test: MIC, antifungal assay; format: cell-based
Micrococcus luteus (381) = test: MIC, NCCLS broth microdilution; format: cell-based
[6] = test system: Pseudomona aeruginosa (27853); test: MIC, NCCLS broth microdilution; format: cell-based
[7] = test system: Corynebacterium Group A (49676); test: MIC, NCCLS broth microdilution; format: cell-based
Bacillus subtilis (6633) = test: MIC, NCCLS broth microdilution; format: cell-based
[8] = test system: Peptostreptococcus asaccharolytics (29743); test: MIC, NCCLS broth microdilution; format: cell-based; conditions: anaerobe
[9] = test system: Enterococcus faecalis (29212); test: MIC, NCCLS broth microdilution; format: cell-based
[10] = test system: Clostridium perfringens (13124); test: microbe, parasite or virus in culture; format: cell-based
Esherichia coli (25922) = test: MIC, NCCLS broth microdilution; format: cell-based, Escherichia coli
[11] = test system: Cryptococcus neoformans (90112); test: MIC, antifungal assay; format: cell-based
[12] = test system: Enterococcus faecium (51559) (vacomycin resistant); test: MIC, NCCLS broth microdilution; format: cell-based
Candida albicans (90028) [13] = test: MIC, antifungal assay; format: cell-based
[14] = test system: Streptococcus pyogenes (49339); test: MIC, NCCLS broth microdilution; format: cell-based
[15] = test system: Candida albicans (38247) (Polyene resistant); test: MIC, antifungal assay; format: cell-based
[16] = test system: Streptococcus pneumoniae (49619); test: MIC, NCCLS broth microdilution; format: cell-based
Bacillus cereus (11778) [17] = test: MIC, NCCLS broth microdilution; format: cell-based
[18] = test system: Staphylococcus epidermidis (12228); test: MIC, NCCLS broth microdilution; format: cell-based
[19] = test system: Haemophilus influenzae (49247); test: MIC, NCCLS broth microdilution; format: cell-based
ATTACT = test: DNase I footprint titration, ATTACT site; format: binding; conditions: equilibrium association constant Ka; pH 7.0, 22° C.
Fusarium solani (36031) = test: MIC, antifungal assay; format: cell-based
[20] = test system: Enterococcus faecalis (29212); test: MBC according to NCCLS guideline; format: cell-based
AGTACT = test: DNase I footprint titration, AGTACT site; format: binding; conditions: equilibrium association constant Ka; pH 7.0, 22° C.
[21] = test system: Streptococcus pneumoniae (51422) (multiple drug resistant); test: MIC, NCCLS broth microdilution; format: cell-based
AATACT = test: DNase I footprint titration, AATACT site; format: binding; conditions: equilibrium association constant Ka; pH 7.0, 22° C.
[22] = test system: Listeria monocytogenes (19115); test: MIC, NCCLS broth microdilution; format: cell-based
[23] = test system: Staphylococcus aureus (29213); test: MBC according to NCCLS guideline; format: cell-based
Candida albicans (90028) [24] = test: MBC according to NCCLS guideline; format: cell-based
[25] = test system: Saccharomyces cerevisiae (44773); test: MIC, antifungal assay; format: cell-based
ACTACT = test: DNase I footprint titration, ACTACT site; format: binding; conditions: equilibrium association constant Ka; pH 7.0, 22° C.
[26] = test system: Aspergillus niger (10535); test: MIC, antifungal assay; format: cell-based
[27] = test system: Trichophyto tonsurans (28942); test: MIC, antifungal assay; format: cell-based
all species tested = test: Microbicidal activity (MIC versus MBC), all species tested; format: cell-based; conditions: in words; from difference between MICs and MBCs
From the text: The minimal bactericidal concentration (MBC) has been determined for some of these designed compounds according to NCCLS guideline (Lorian, V. 1996 Antibiotics in laboratory medicine (The Williams & Wilkins Co., Baltimore, Md.)). The difference between the MICs and the MBCs has been established as an index of the bactericidal activity of an antibiotic.

[28] = test system: Paecilomyces variotii (22319); test: MIC, antifungal assay; format: cell-based
[29] = test system: Streptococcus pneumoniae (49619); test: MBC according to NCCLS guideline; format: cell-based
Bacillus anthracis = format: cell-based
Bacillus cereus (11778) [30] = test: MBC according to NCCLS guideline; format: cell-based
[31] = test system: Saccharomyces cerevisiae (44773); test: MBC according to NCCLS guideline; format: cell-based
[32] = test system: dsDNA restriction fragment; test: dsDNA binding, DNase I footprinting on restriction fragment; conditions: in words
[33] = test system: different species of bacteria and fungi; conditions: in words
TGGTCA = conditions: equilibrium association constant Ka; pH 7.0, 22° C.
[34] = Staphylococcus aureus (33591), methicillin resistant (MRSA)
[35] = Corynebacterium Group A (49676)
[36] = Enterococcus faecium (51559), vancomycin resistant
[37] = Streptococcus pyogenes (49339), Table Ia: Streptococcus Group A(49339)
[38] = Streptococcus pneumoniae (49619)
[39] = Staphylococcus epidermidis (12228)

Cn1cc(NC(=O)c2cc(NC(=O)c3cc(NC=O)cn3C)cn2C)cc1C(=O)NCCC(=N)N [Distamycin, distamycin, reference compound]
MIC [1, 34]: 16 µg/mL (≈ 33.2 µM)
MIC ([2]; Staphylococcus aureus (29213)): 32 µg/mL (≈ 66.5 µM)
MIC ([3]; Candida parapsilosis (10232)): >128 µg/mL
MIC [4]: 16 µg/mL (≈ 33.2 µM)
MIC ([5]; Candida tropicalis (13803)): >128 µg/mL
MIC (Micrococcus luteus (381)): 32 µg/mL (≈ 66.5 µM)
MIC ([6]; Pseudomona aeruginosa (27853)): >128 µg/mL
MIC [7, 35]: 16 µg/mL (≈ 33.2 µM)
MIC (Bacillus subtilis (6633); Bacillus subtilis (6633)): 64 to 128 µg/mL
MIC [8]: 8 µg/mL (≈ 16.6 µM)
MIC ([9]; Enterococcus faecalis (29212)): 16 to 32 µg/mL
MIC [10]: 8 µg/mL (≈ 16.6 µM)
MIC (Esherichia coli (25922); Escherichia coli (25922)): >128 µg/mL
MIC ([11]; Cryptococcus neoformans (90112)): >128 µg/mL
MIC [12, 36]: 128 µg/mL (≈ 266 µM)
MIC (Candida albicans (90028) [13]): >128 µg/mL
MIC [14, 37]: 32 µg/mL (≈ 66.5 µM)
MIC [15]: >128 µg/mL
MIC [16, 38]: 16 µg/mL (≈ 33.2 µM)
MIC (Bacillus cereus (11778) [17]; Bacillus cereus (11778)): 8 µg/mL (≈ 16.6 µM)
MIC [18, 39]: 64 µg/mL (≈ 133 µM)

Cn1cc(NC(=O)c2cc(NC(=O)CN=C(N)N)cn2C)cc1C(=O)NCCC(=N)N [Netropsin, netropsin, reference compound]
MIC ([1]; Staphylococcus aureus, MRSA): 4 µg/mL (≈ 9.29 µM)
MIC ([2]; Staphylococcus aureus): 4 µg/mL (≈ 9.29 µM)
MIC ([3]; Lodderomyces parapsilosis): 16 µg/mL (≈ 37.2 µM)
MIC ([5]; Candida tropicalis): 16 µg/mL (≈ 37.2 µM)
MIC [6]: > 128 µg/mL
MIC ([7]; Corynebacterium): 0.5 µg/mL (≈ 1.16 µM)
MIC (Bacillus subtilis (6633); Bacillus subtilis): 4 µg/mL (≈ 9.29 µM)
MIC ([9]; Enterococcus faecalis): 2 µg/mL (≈ 4.65 µM)
MIC ([19]; Haemophilus influenzae): 4 µg/mL (≈ 9.29 µM)
MIC (Esherichia coli (25922); Escherichia coli): 2 µg/mL (≈ 4.65 µM)
MIC ([11]; Cryptococcus neoformans): 4 µg/mL (≈ 9.29 µM)
MIC ([12]; Enterococcus faecium): 8 µg/mL (≈ 18.6 µM)
MIC ([14]; Streptococcus pyogenes): 8 µg/mL (≈ 18.6 µM)
MIC ([16]; Streptococcus pneumoniae): 0.125 µg/mL (≈ 0.29 µM)
MIC (Bacillus cereus (11778) [17]; Bacillus cereus): 2 µg/mL (≈ 4.65 µM)
MIC ([18]; Staphylococcus epidermidis): 2 to 4 µg/mL (≈ 4.65 to 9.29 µM)

CN(C)CCCNC(=O)c1cc(NC(=O)c2cc(NC(=O)c3cc(NC(=O)c4nsc(NCCCN)c4Cl)cn3C)cn2C)cn1C [V-b]
Binding Constant, sequence ATTACT (ATTACT): 1e+08 M⁻¹
MIC [1, 34]: 4 µg/mL (≈ 5.83 µM)
MIC ([2]; Staphylococcus aureus (29213)): 2 µg/mL (≈ 2.91 µM)
MIC (Fusarium solani (36031)): 4 to 8 µg/mL
MBC [20]: >4 µg/mL
Binding Constant, sequence AGTACT (AGTACT): 3e+09 M⁻¹
MIC [21]: 1 µg/mL (≈ 1.46 µM)
MIC [4]: 4 µg/mL (≈ 5.83 µM)
MIC ([6]; Pseudomona aeruginosa (27853)): >128 µg/mL
Binding Constant, sequence AATACT (AATACT): 1e+08 M⁻¹
MIC [7, 35]: 0.5 µg/mL (≈ 0.729 µM)
MIC (Bacillus subtilis (6633); Bacillus subtilis (6633)): 0.5 to 1 µg/mL
MIC [8]: 0.125 µg/mL (≈ 0.182 µM)
MIC [22]: 8 µg/mL (≈ 11.7 µM)
MBC [23]: 4 µg/mL (≈ 5.83 µM)
MIC ([9]; Enterococcus faecalis (29212)): 1 µg/mL (≈ 1.46 µM)
MIC ([10]; Clostridium perfringens (13124), anaerobe): 1 µg/mL (≈ 1.46 µM)
MBC (Candida albicans (90028) [24]): 4 µg/mL (≈ 5.83 µM)
MIC [25]: 16 µg/mL (≈ 23.3 µM)
MIC ([19]; Haemophilus influenzae (49247)): 32 µg/mL (≈ 46.6 µM)
MIC (Esherichia coli (25922); Escherichia coli (25922)): >128 µg/mL
Binding Constant, sequence ACTACT (ACTACT): 2e+08 M⁻¹
MIC [12, 36]: 2 to 4 µg/mL
MIC [26]: 4 µg/mL (≈ 5.83 µM)
MIC [27]: 16 µg/mL (≈ 23.3 µM)
MIC (Candida albicans (90028) [13]): 4 µg/mL (≈ 5.83 µM)
Microbicidal activity (all species tested): microbicidal agents for all species tested
MIC [14, 37]: 0.25 µg/mL (≈ 0.364 µM)
MIC [28]: 0.5 µg/mL (≈ 0.729 µM)
MIC [16, 38]: 0.5 µg/mL (≈ 0.729 µM)
MBC [29]: 0.5 µg/mL (≈ 0.729 µM)
MIC (Bacillus anthracis): 32 µg/mL (≈ 46.6 µM)
MBC (Bacillus cereus (11778) [30]): 0.5 µg/mL (≈ 0.729 µM)
MBC [31]: 16 µg/mL (≈ 23.3 µM)
MIC (Bacillus cereus (11778) [17]; Bacillus cereus (11778)): 0.5 µg/mL (≈ 0.729 µM)
MIC [18, 39]: 2 µg/mL (≈ 2.91 µM)

CN(C)CCCNC(=O)CCNC(=O)c1cc(NC(=O)c2cc(NC(=O)c3nsc(Cl)c3Cl)cn2C)cn1C [V-cc]
dsDNA binding [32]: good binder for dsDNA
Anti-pathogenic properties [33]: significant anti-pathogenic properties

CN(C)CCCNC(=O)CCNC(=O)c1cc(NC(=O)c2cc(NC(=O)c3cc(NC(=O)c4cc(NC(=O)c5nsc(Cl)c5Cl)cn4C)cn3C)cn2C)cn1C [V-t]
Binding Constant, sequence ATTACT (ATTACT): 2e+08 M⁻¹
Binding Constant, sequence AGTACT (AGTACT): 2e+08 M⁻¹
Binding Constant, sequence AATACT (AATACT): 2e+08 M⁻¹
Binding Constant, sequence ACTACT (ACTACT): 2e+08 M⁻¹
Binding Constant, sequence TGGTCA (TGGTCA): 1e+10 M⁻¹

CN(C)CCCNC(=O)CCNC(=O)c1cc(NC(=O)c2cc(NC(=O)c3cc(NC(=O)c4nc(NC(=O)CCCNC(=O)c5cc(NC(=O)c6cc(NC(=O)c7nsc(Cl)c7Cl)cn6C)cn5C)cn4C)cn3C)cn2C)cn1C [VI-c]
Binding Constant, sequence ATTACT (ATTACT): 1e+10 M⁻¹
Binding Constant, sequence AGTACT (AGTACT): 2e+08 M⁻¹
Binding Constant, sequence AATACT (AATACT): 1e+09 M⁻¹
Sequence preference of binding [32]: bind ATTACT, and AATACT preferentially to ACTACT and AGTACT
Binding Constant, sequence ACTACT (ACTACT): 1e+08 M⁻¹
